{
  "source": "patent US8192962B2",
  "about": "“Processes for detecting toxic substances” (Daikin Industries, Ltd., priority 2001, dated 2012)",
  "test_system": "Transport facilitation protein genes",
  "assay": "DNA chip mRNA expression in yeast, transport facilitation protein genes (Table 5)",
  "type": "cell-based, Saccharomyces cerevisiae S288C",
  "procedure,_shortened": "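Measured as treated-to-untreated fluorescence ratio on a full-genome yeast DNA chip. Cells (S288C, YPD, 25° C.) were exposed in log phase for two hours to one chemical, dosed to curb growth without killing.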",
  "data": [
    {"smiles": "[Cl][Hg][Cl]", "note": "[(3), HgCl2]", "values": [
      {"measurement": "The level of expressed mRNA in the presence of chemical substance/The level of expressed mRNA in the absence of chemical substance", "setting": "yeast gene YGR224W", "result": 1.2},
      {"measurement": "The level of expressed mRNA in the presence of chemical substance/The level of expressed mRNA in the absence of chemical substance", "setting": "yeast gene YGR260W", "result": 3.4},
      {"measurement": "The level of expressed mRNA in the presence of chemical substance/The level of expressed mRNA in the absence of chemical substance", "setting": "yeast gene YGR281W", "result": 1.3},
      {"measurement": "The level of expressed mRNA in the presence of chemical substance/The level of expressed mRNA in the absence of chemical substance", "setting": "yeast gene YHL035C", "result": 0.9},
      {"measurement": "The level of expressed mRNA in the presence of chemical substance/The level of expressed mRNA in the absence of chemical substance", "setting": "yeast gene YHL040C", "result": 1.5},
      {"measurement": "The level of expressed mRNA in the presence of chemical substance/The level of expressed mRNA in the absence of chemical substance", "setting": "yeast gene YHL047C", "result": 1.0},
      {"measurement": "The level of expressed mRNA in the presence of chemical substance/The level of expressed mRNA in the absence of chemical substance", "setting": "yeast gene YHR026W", "result": 1.9},
      {"measurement": "The level of expressed mRNA in the presence of chemical substance/The level of expressed mRNA in the absence of chemical substance", "setting": "yeast gene YHR092C", "result": 7.5},
      {"measurement": "The level of expressed mRNA in the presence of chemical substance/The level of expressed mRNA in the absence of chemical substance", "setting": "yeast gene YHR094C", "result": 5.3},
      {"measurement": "The level of expressed mRNA in the presence of chemical substance/The level of expressed mRNA in the absence of chemical substance", "setting": "yeast gene YHR175W", "result": 2.4},
      {"measurement": "The level of expressed mRNA in the presence of chemical substance/The level of expressed mRNA in the absence of chemical substance", "setting": "yeast gene YIL006W", "result": 1.4},
      {"measurement": "The level of expressed mRNA in the presence of chemical substance/The level of expressed mRNA in the absence of chemical substance", "setting": "yeast gene YIL022W", "result": 1.1},
      {"measurement": "The level of expressed mRNA in the presence of chemical substance/The level of expressed mRNA in the absence of chemical substance", "setting": "yeast gene YIL056W", "result": 6.2},
      {"measurement": "The level of expressed mRNA in the presence of chemical substance/The level of expressed mRNA in the absence of chemical substance", "setting": "yeast gene YIL088C", "result": 2.1},
      {"measurement": "The level of expressed mRNA in the presence of chemical substance/The level of expressed mRNA in the absence of chemical substance", "setting": "yeast gene YJL034W", "result": 3.0},
      {"measurement": "The level of expressed mRNA in the presence of chemical substance/The level of expressed mRNA in the absence of chemical substance", "setting": "yeast gene YJL212C", "result": 3.1},
      {"measurement": "The level of expressed mRNA in the presence of chemical substance/The level of expressed mRNA in the absence of chemical substance", "setting": "yeast gene YJL219W", "result": 3.1},
      {"measurement": "The level of expressed mRNA in the presence of chemical substance/The level of expressed mRNA in the absence of chemical substance", "setting": "yeast gene YJR077C", "result": 2.0},
      {"measurement": "The level of expressed mRNA in the presence of chemical substance/The level of expressed mRNA in the absence of chemical substance", "setting": "yeast gene YJR106W", "result": 1.5},
      {"measurement": "The level of expressed mRNA in the presence of chemical substance/The level of expressed mRNA in the absence of chemical substance", "setting": "yeast gene YJR121W", "result": 3.3},
      {"measurement": "The level of expressed mRNA in the presence of chemical substance/The level of expressed mRNA in the absence of chemical substance", "setting": "yeast gene YKL016C", "result": 0.7},
      {"measurement": "The level of expressed mRNA in the presence of chemical substance/The level of expressed mRNA in the absence of chemical substance", "setting": "yeast gene YKL146W", "result": 1.3},
      {"measurement": "The level of expressed mRNA in the presence of chemical substance/The level of expressed mRNA in the absence of chemical substance", "setting": "yeast gene YKR039W", "result": 1.3},
      {"measurement": "The level of expressed mRNA in the presence of chemical substance/The level of expressed mRNA in the absence of chemical substance", "setting": "yeast gene YKR067W", "result": 1.5},
      {"measurement": "The level of expressed mRNA in the presence of chemical substance/The level of expressed mRNA in the absence of chemical substance", "setting": "yeast gene YLL028W", "result": 4.6},
      {"measurement": "The level of expressed mRNA in the presence of chemical substance/The level of expressed mRNA in the absence of chemical substance", "setting": "yeast gene YLR081W", "result": 2.8},
      {"measurement": "The level of expressed mRNA in the presence of chemical substance/The level of expressed mRNA in the absence of chemical substance", "setting": "yeast gene YLR295C", "result": 1.1},
      {"measurement": "The level of expressed mRNA in the presence of chemical substance/The level of expressed mRNA in the absence of chemical substance", "setting": "yeast gene YLR348C", "result": 1.2},
      {"measurement": "The level of expressed mRNA in the presence of chemical substance/The level of expressed mRNA in the absence of chemical substance", "setting": "yeast gene YLR378C", "result": 2.6},
      {"measurement": "The level of expressed mRNA in the presence of chemical substance/The level of expressed mRNA in the absence of chemical substance", "setting": "yeast gene YMR011W", "result": 9.4},
      {"measurement": "The level of expressed mRNA in the presence of chemical substance/The level of expressed mRNA in the absence of chemical substance", "setting": "yeast gene YMR162C", "result": 1.1},
      {"measurement": "The level of expressed mRNA in the presence of chemical substance/The level of expressed mRNA in the absence of chemical substance", "setting": "yeast gene YMR203W", "result": 3.0},
      {"measurement": "The level of expressed mRNA in the presence of chemical substance/The level of expressed mRNA in the absence of chemical substance", "setting": "yeast gene YNL055C", "result": 5.5},
      {"measurement": "The level of expressed mRNA in the presence of chemical substance/The level of expressed mRNA in the absence of chemical substance", "setting": "yeast gene YNL259C", "result": 1.1},
      {"measurement": "The level of expressed mRNA in the presence of chemical substance/The level of expressed mRNA in the absence of chemical substance", "setting": "yeast gene YNR072W", "result": 0.5},
      {"measurement": "The level of expressed mRNA in the presence of chemical substance/The level of expressed mRNA in the absence of chemical substance", "setting": "yeast gene YOL119C", "result": 1.5},
      {"measurement": "The level of expressed mRNA in the presence of chemical substance/The level of expressed mRNA in the absence of chemical substance", "setting": "yeast gene YOL156W", "result": 2.5},
      {"measurement": "The level of expressed mRNA in the presence of chemical substance/The level of expressed mRNA in the absence of chemical substance", "setting": "yeast gene YOL163W", "result": 2.1},
      {"measurement": "The level of expressed mRNA in the presence of chemical substance/The level of expressed mRNA in the absence of chemical substance", "setting": "yeast gene YOR035C", "result": 0.3},
      {"measurement": "The level of expressed mRNA in the presence of chemical substance/The level of expressed mRNA in the absence of chemical substance", "setting": "yeast gene YOR130C", "result": 1.4},
      {"measurement": "The level of expressed mRNA in the presence of chemical substance/The level of expressed mRNA in the absence of chemical substance", "setting": "yeast gene YOR153W", "result": 5.1},
      {"measurement": "The level of expressed mRNA in the presence of chemical substance/The level of expressed mRNA in the absence of chemical substance", "setting": "yeast gene YOR273C", "result": 1.7},
      {"measurement": "The level of expressed mRNA in the presence of chemical substance/The level of expressed mRNA in the absence of chemical substance", "setting": "yeast gene YOR316C", "result": 1.5},
      {"measurement": "The level of expressed mRNA in the presence of chemical substance/The level of expressed mRNA in the absence of chemical substance", "setting": "yeast gene YOR332W", "result": 1.0},
      {"measurement": "The level of expressed mRNA in the presence of chemical substance/The level of expressed mRNA in the absence of chemical substance", "setting": "yeast gene YOR348C", "result": 1.2},
      {"measurement": "The level of expressed mRNA in the presence of chemical substance/The level of expressed mRNA in the absence of chemical substance", "setting": "yeast gene YPL036W", "result": 2.8},
      {"measurement": "The level of expressed mRNA in the presence of chemical substance/The level of expressed mRNA in the absence of chemical substance", "setting": "yeast gene YPL134C", "result": 1.6},
      {"measurement": "The level of expressed mRNA in the presence of chemical substance/The level of expressed mRNA in the absence of chemical substance", "setting": "yeast gene YPL271W", "result": 4.1},
      {"measurement": "The level of expressed mRNA in the presence of chemical substance/The level of expressed mRNA in the absence of chemical substance", "setting": "yeast gene YPR192W", "result": 0.9},
      {"measurement": "The level of expressed mRNA in the presence of chemical substance/The level of expressed mRNA in the absence of chemical substance", "setting": "yeast gene YPR194C", "result": 0.5}
    ]}
  ]
}
